Assay results reported in the NIST ThermoML archive (doi:10.1021/acs.jced.8b00132).
“And” between values parts separate entries of the source, which are not always exact repeats. Identical values can stand only once.

O=C(C(F)(F)C(F)(F)F)C(F)(C(F)(F)F)C(F)(F)F [dodecafluoro-2-methylpentan-3-one]
Settings | thermal conductivity
416.9 K, 36 kPa, Gas, hot wire | 0.02006 W/m/K
416.9 K, 371 kPa, Gas, hot wire | 0.0221 W/m/K
416.9 K, 588 kPa, Gas, hot wire | 0.02223 W/m/K
416.9 K, 16292 kPa, Liquid, transient hot wire | 0.05129 W/m/K
416.91 K, 372 kPa, Gas, hot wire | 0.02173 W/m/K
416.94 K, 50897 kPa, Liquid, transient hot wire | 0.06577 W/m/K
416.94 K, 50918 kPa, Liquid, transient hot wire | 0.06559 W/m/K
416.96 K, 1022 kPa, Gas, transient hot wire | 0.02164 W/m/K
416.96 K, 2206 kPa, Liquid, transient hot wire | 0.04045 W/m/K
416.96 K, 24851 kPa, Liquid, transient hot wire | 0.05549 W/m/K
416.96 K, 24868 kPa, Liquid, transient hot wire | 0.05555 W/m/K
416.96 K, 35761 kPa, Liquid, transient hot wire | 0.06013 W/m/K
416.97 K, 1022 kPa, Gas, transient hot wire | 0.02164 W/m/K
416.97 K, 2207 kPa, Liquid, transient hot wire | 0.04051 W/m/K
416.97 K, 35765 kPa, Liquid, transient hot wire | 0.06009 W/m/K
416.98 K, 10573 kPa, Liquid, transient hot wire | 0.04835 W/m/K
416.98 K, 10595 kPa, Liquid, transient hot wire | 0.04788 W/m/K
417 K, 369 kPa, Gas, hot wire | 0.0224 W/m/K
417 K, 1132 kPa, Gas, transient hot wire | 0.02284 W/m/K
417.01 K, 369 kPa, Gas, hot wire | 0.02218 W/m/K
417.01 K, 1132 kPa, Gas, transient hot wire | 0.02288 W/m/K
417.02 K, 6421 kPa, Liquid, transient hot wire | 0.04518 W/m/K
417.03 K, 36 kPa, Gas, hot wire | 0.01958 W/m/K
417.04 K, 587 kPa, Gas, hot wire | 0.0216 W/m/K
417.04 K, 6421 kPa, Liquid, transient hot wire | 0.0448 W/m/K
417.05 K, 587 kPa, Gas, hot wire | 0.02156 W/m/K
417.06 K, 16291 kPa, Liquid, transient hot wire | 0.05136 W/m/K
417.06 K, 16299 kPa, Liquid, transient hot wire | 0.05141 W/m/K
417.07 K, 1170 kPa, Liquid, transient hot wire | 0.03917 W/m/K
417.07 K, 50875 kPa, Liquid, transient hot wire | 0.06482 W/m/K
417.08 K, 3783 kPa, Liquid, transient hot wire | 0.04192 W/m/K
417.08 K, 3784 kPa, Liquid, transient hot wire | 0.04234 W/m/K
417.08 K, 50878 kPa, Liquid, transient hot wire | 0.06554 W/m/K
417.11 K, 1022 kPa, Gas, transient hot wire | 0.02183 W/m/K
417.11 K, 1023 kPa, Gas, transient hot wire | 0.02181 W/m/K
417.11 K, 24870 kPa, Liquid, transient hot wire | 0.05563 W/m/K
417.11 K, 35758 kPa, Liquid, transient hot wire | 0.06018 W/m/K
417.11 K, 35760 kPa, Liquid, transient hot wire | 0.06018 W/m/K
417.12 K, 368 kPa, Gas, hot wire | 0.02238 W/m/K
417.12 K, 24862 kPa, Liquid, transient hot wire | 0.05569 W/m/K
417.13 K, 2206 kPa, Liquid, transient hot wire | 0.04049 W/m/K
417.13 K, 10587 kPa, Liquid, transient hot wire | 0.0479 W/m/K
417.14 K, 36 kPa, Gas, hot wire | 0.02006 W/m/K
417.15 K, 141 kPa, Gas, hot wire | 0.02023 W/m/K and 0.0203 W/m/K
417.15 K, 588 kPa, Gas, hot wire | 0.02157 W/m/K
417.15 K, 2206 kPa, Liquid, transient hot wire | 0.04048 W/m/K
417.15 K, 10596 kPa, Liquid, transient hot wire | 0.04784 W/m/K
417.16 K, 36 kPa, Gas, hot wire | 0.01976 W/m/K
417.16 K, 367 kPa, Gas, hot wire | 0.02181 W/m/K
417.16 K, 587 kPa, Gas, hot wire | 0.02144 W/m/K
417.17 K, 1132 kPa, Gas, transient hot wire | 0.02232 W/m/K
417.21 K, 6422 kPa, Liquid, transient hot wire | 0.04496 W/m/K
417.21 K, 50843 kPa, Liquid, transient hot wire | 0.06558 W/m/K
417.22 K, 6424 kPa, Liquid, transient hot wire | 0.04481 W/m/K
417.22 K, 16290 kPa, Liquid, transient hot wire | 0.05134 W/m/K
417.23 K, 16286 kPa, Liquid, transient hot wire | 0.05137 W/m/K
417.23 K, 50866 kPa, Liquid, transient hot wire | 0.06561 W/m/K
417.27 K, 36 kPa, Gas, hot wire | 0.02022 W/m/K and 0.02032 W/m/K
417.28 K, 1023 kPa, Gas, transient hot wire | 0.02198 W/m/K and 0.02197 W/m/K
417.28 K, 3783 kPa, Liquid, transient hot wire | 0.04235 W/m/K
417.28 K, 3784 kPa, Liquid, transient hot wire | 0.04243 W/m/K
417.28 K, 24853 kPa, Liquid, transient hot wire | 0.0557 W/m/K
417.28 K, 24856 kPa, Liquid, transient hot wire | 0.0557 W/m/K
417.28 K, 35752 kPa, Liquid, transient hot wire | 0.06016 W/m/K
417.28 K, 35756 kPa, Liquid, transient hot wire | 0.06019 W/m/K
417.29 K, 367 kPa, Gas, hot wire | 0.02172 W/m/K
417.29 K, 996 kPa, Gas, transient hot wire | 0.02211 W/m/K and 0.02184 W/m/K
417.31 K, 140 kPa, Gas, hot wire | 0.02018 W/m/K
417.32 K, 140 kPa, Gas, hot wire | 0.02001 W/m/K
417.32 K, 10582 kPa, Liquid, transient hot wire | 0.04781 W/m/K
417.32 K, 10584 kPa, Liquid, transient hot wire | 0.04786 W/m/K
417.33 K, 788 kPa, Gas, transient hot wire | 0.02096 W/m/K
417.33 K, 791 kPa, Gas, transient hot wire | 0.02134 W/m/K
417.33 K, 2205 kPa, Liquid, transient hot wire | 0.04065 W/m/K
417.34 K, 2205 kPa, Liquid, transient hot wire | 0.0406 W/m/K
417.36 K, 50814 kPa, Liquid, transient hot wire | 0.06551 W/m/K
417.37 K, 50821 kPa, Liquid, transient hot wire | 0.0652 W/m/K
417.39 K, 16280 kPa, Liquid, transient hot wire | 0.05131 W/m/K
417.4 K, 6421 kPa, Liquid, transient hot wire | 0.0453 W/m/K
417.4 K, 6422 kPa, Liquid, transient hot wire | 0.04487 W/m/K
417.41 K, 597 kPa, Gas, transient hot wire | 0.02073 W/m/K
417.42 K, 36 kPa, Gas, hot wire | 0.02028 W/m/K and 0.02029 W/m/K
417.43 K, 595 kPa, Gas, transient hot wire | 0.02069 W/m/K
417.43 K, 1024 kPa, Gas, transient hot wire | 0.02226 W/m/K and 0.02228 W/m/K
